Data taken from patent US9586985B2, “Organic compounds as proantigens for natural killer T cells” (Callaghan Innovation Research Limited, priority 2012, dated 2017).
“Also recorded” adds a separate entry of the source.

Legend:
[1] = tested on: cytokines IL-12p70, IL-4 and IFN-g; assay: Cytokine release into serum after injection (cytokine bead array); type: in vivo, C57BL/6 mice; settings: for cytokine profile in vivo compared to α-GalCer: 200 ng i.v. or molar equivalent
Method: (§1) Groups of C57BL/6 mice (n=3 per group) are injected intravenously with 200 ng of the indicated compounds, and then the serum is collected at the indicated times for analysis of cytokine levels by cytokine bead array technology.
as §1, with “ng of α-GalCer or an equivalent molar amount” for “ng”, “technology. (Compound CN158A1b=CN158 formulated in accordance with Example 15; Compound CN158A=CN158 in water.)” for “technology.”
Blood is collected from the lateral tail vein at different time intervals after glycolipid administration. Serum is collected after blood has clotted, and levels of cytokines IL-12p70, IL-4 and IFN-g are assessed by cytokine bead array technology (Bioplex, Biorad), according to the manufacturer's instructions.

Water solubility = type: physicochemical
[2] = HPLC-ESI-MSMS quantification of α-GalCer in test samples; type: physicochemical
Method: Quantification of the amount of α-GalCer in various test samples of compounds of the invention is made by HPLC-ESI-MSMS analysis using a Waters 2795 HPLC and a Waters Q-TOF Premier™ Tandem Mass Spectrometer. The chromatography used a Phenomenex Kinetex C18 […] 3.0×50 mm column eluting with isocratic methanol containing 10 mM ammonium formate+0.5% formic acid at a flow rate of 0.2 mL/min. α-GalCer is monitored by selective reactant monitoring of 858.7 to 696.7 Da. The estimate of amount of α-GalCer is made by comparison of ion count integrals to a standard curve run on the same day or by comparison to test samples spiked with a known amount of α-GalCer.
The level of α-GalCer is determined on freshly reconstituted formulated samples unless otherwise stated. The estimated maximum level of α-GalCer for key compounds is given below.

[3] = literature statement; cited from earlier work
B16.OVA melanoma cells = assay: Anti-tumour activity against subcutaneous B16.OVA tumours, given with OVA protein; type: in vivo, C57BL/6 mice; settings: i.v. with 200 μg OVA protein seven days after tumour challenge
Method: Progression of subcutaneous B16.OVA tumours is monitored in animals that are treated seven days after tumour challenge with intravenous OVA protein together with the indicated compounds, or treated with PBS. The mean tumour sizes per group (n=5)±SEM are shown.
Progression of subcutaneous B16.OVA tumours is monitored in animals that are treated seven days after tumour challenge with intravenous OVA protein together with the indicated compounds, or treated with PBS. The mean tumour sizes per group (n=5)±SEM are shown. […] (Compound CN158A=CN158 in water.)
Groups of C57BL/6 mice (n=5) receive a subcutaneous injection into the flank of 1×10^5 B16.OVA melanoma cells, which express a cDNA encoding the chicken ovalbumin (OVA) sequence. The different groups are treated 7 days later, when tumours are fully engrafted, by intravenous injection of one of the following; 200 μg OVA protein together with 200 ng α-GalCer, 200 μg OVA protein together with 200 ng of a compound of the invention, or PBS. Mice are monitored for tumour growth every 3-4 days, and tumour size for each group is calculated as the mean of the products of bisecting diameters (±SEM). Measurements are terminated for each group when the first animal develops a tumour exceeding 200 mm^2.

[4] = tested on: SIINFEKL-specific T cells; assay: Peptide-specific T cell proliferation in vivo (adjuvant with OVA); parameters: species or system C57BL/6 mice; settings: co-administered i.v. with OVA, molar dose equivalent to α-GalCer, blood after seven days
Method: The compounds are injected to give the equivalent molar dose as compared to α-GalCer. To increase sensitivity of the assay, all mice are initially donated a cohort of 10,000 SIINFEKL-specific T cells from a transgenic mouse encoding a T cell receptor for this antigen (OT-1 mice), which is undertaken by intravenous injection of the cells one day before the vaccines are administered. […] It is therefore possible to enumerate SIINFEKL-specific T cells in blood by flow cytometry using antibodies for CD45.1 together with antibodies for the transgenic T cell receptor (Vα2). […] Control animals are injected with the diluent phosphate-buffered saline (PBS). Each dot represents a different animal; mean per treatment group±SEM are presented. ***p<0.001, ** p<0.01, * p<0.05.
Pooled lymph node cell suspensions are prepared from animals of a cross between OT-I mice, which express a transgenic T cell receptor (TCR) specific for the ovalbumin epitope SIINFEKL in the context of H-2K^b molecules, and B6.SJL-Ptprc^a Pepc^b/BoyJ mice, which are congenic with C57BL/6 mice for the CD45.1^+ marker. The samples are enriched for CD8^+ cells using antibody coated magnetic beads (Miltenyi), and then transferred into C57BL/6 mice (1×10^4 per mouse). Groups of recipient animals (n=5) are immunized with compounds of the invention one day later. Doses are chosen to provide equivalent molar values of SIINFEKL peptide. […]

[5] = tested on: NKT cells / CD11c+ dendritic cells; assay: CD86 expression on splenic dendritic cells after injection (DC activation as measure of NKT cell activation); type: in vivo, C57BL/6 mice; settings: 200 ng i.v. (FIG. 7: molar equivalent of 200 ng α-GalCer), spleens removed 20 h later, flow cytometry
Method: (§2) Groups of C57BL/6 mice (n=3) are injected intravenously with 200 ng of the indicated compounds and then the spleens are removed 20 h later for the analysis of CD86 expression on CD11c+ dendritic cells by antibody labelling and flow cytometry. Mean fluorescence index±SEM are presented.
as §2, with “200 ng of α-GalCer or an equivalent molar amount of the” for “200 ng of the”, “are presented. (Compound CN158A1b=CN158 formulated in accordance with Example 15. Compound CN158A=CN158 in water.)” for “are presented.”
Each compound of the invention is supplied as formulated product (see example 12), and diluted in phosphate-buffered saline (PBS) for injection (200 ng/mouse) by intravenous injection into the lateral tail vein. In humans the expected therapeutic dose lies in the 50-4800 (μg/m^2) range (Giaccone, Punt et al. 2002). Note, 200 ng in a mouse is a human equivalent dose of 30 μg/m^2.
All antibody labeling is performed on ice in FACS buffer (PBS supplemented with 1% FCS, 0.05% sodium azide, and 2 mM EDTA). Non-specific FcR-mediated antibody staining is blocked by incubation for 10 min with anti-CD16/32 Ab (24G2, prepared in-house from hybridoma supernatant). […]

[6] = freshly reconstituted formulated sample, estimated maximum level
[7] = non-formulated / unformulated sample (CN158*: aqueous solution)

Compound | cytokine profile in vivo compared to α-GalCer ([1]; FIGS. 3 and 8) | water solubility (Water solubility) [mg/mL] | Max α-GalCer (ppm) [2, 6] | Max α-GalCer/injection [2, 6] [ng] | anti-tumour activity: growth of established B16.OVA tumours (B16.OVA melanoma cells) | SIINFEKL-specific T cell response in blood (adjuvant activity) [4] | Max α-GalCer (ppm) [2, 7] | Max α-GalCer/injection [2, 7] [ng] | other results
(2S,3S,4R)-1-O-α-D-Galactopyranosyl-4-hexacosanoyl-2-((4-(2-methoxy(poly(2-ethoxy))imino)pentanoyloxy)methoxycarbonylamino) octadecane-1,3,4-triol [CN147] | different cytokine profiles | ~0.5 | 615 ppm | 0.123 | – | – | – | – | course of IL-12p70 level in serum ([1]; 200 ng i.v., FIG. 3): still increasing through 6 to 12 h; ratio of IFN-γ to IL-4 in serum compared to α-GalCer ([1]; 200 ng i.v., FIG. 3): higher ratio of IFN-γ to IL-4 than that of α-GalCer
CCCCCCCCCCCCCCCCCCCCCCCCCC(=O)O[C@H](CCCCCCCCCCCCCC)[C@@H](O)[C@H](CO[C@H]1O[C@H](CO)[C@H](O)[C@H](O)[C@H]1O)NC(=O)OCOC(C)=O [CN136, (2S,3S,4R)-2-Acetoxymethoxycarbonylamino-1-O-α-D-galactopyranosyl-4-O-hexacosanoyl octadecane-1,3,4-triol] | – | – | 1,000 ppm | 0.2 | – | – | – | – | –
CCCCCCCCCCCCCCCCCCCCCCCCCC(=O)N[C@@H](CO[C@H]1O[C@H](CO)[C@H](O)[C@H](O)[C@H]1O)[C@H](O)[C@H](O)CCCCCCCCCCCCCC [α-GalCer, α-Galactosylceramide, reference compound] | – | – | – | – | provides therapeutic anti-tumour activity | induces a population of SIINFEKL-specific T cells | – | – | time of peak IFN-γ level in serum ([1]; after injection, mice): 12 h; time of peak IL-4 level in serum ([1]; after injection, mice): 2 to 3 h; time of peak IL-12p70 level in serum ([1]; after injection, mice): 6 h; water solubility (in words) [3]: low water solubility; also recorded: poor solubility
CCCCCCCCCCCCCCCCCCCCCCCCCC(=O)O[C@H](CCCCCCCCCCCCCC)[C@@H](O)[C@@H](N)CO[C@H]1O[C@H](CO)[C@H](O)[C@H](O)[C@H]1O [CN089, (2S,3S,4R)-2-Amino-1-O-α-D-galactopyranosyl-4-O-hexacosanoyl octadecane-1,3,4-triol] | – | – | – | – | – | – | – | – | DC activation: CD86 expression on splenic CD11c+ dendritic cells [5]: potently activates DCs; conversion of CN089 to α-GalCer after formulation ([2]; within 1 hour of formulation, LCMSMS): approximately 50%
CCCCCCCCCCCCCCCCCCCCCCCCCC(=O)O[C@H](CCCCCCCCCCCCCC)[C@@H](O)[C@H](CO[C@H]1O[C@H](CO)[C@H](O)[C@H](O)[C@H]1O)NC(=O)OCOP(=O)(O)O [CN131, (2S,3S,4R)-1-O-α-D-Galactopyranosyl-4-O-hexacosanoyl-2-phosphoryloxymethoxycarbonylamino octadecane-1,3,4-triol] | – | – | – | – | – | – | 6,000 (analysis on non- ppm | 1.2 | –
(2S,3S,4R)-1-O-α-D-Galactopyranosyl-4-hexacosanoyl-2-((4-(ω-methoxy(poly(ethyleneoxy))imino)pentanoyloxy)methyleneoxycarbonylamino) octadecane-1,3,4-triol [CN158] | different cytokine profiles | ~38 | 180 ppm | 0.25 | provides therapeutic anti-tumour activity | induces a similar T cell expansion | 170 ppm | 0.24 | overall levels of systemic cytokine production ([1]; 200 ng α-GalCer or equivalent i.v., FIGS. 3 and 8): no systemic cytokines are detected; also recorded: No detectable cytokines are observed
